Values quoted from earlier work, collected in patent US20050228336A1, “Electrically assisted lidocaine and epinephrine delivery device having extended shelf-stability” (priority 2004, published 2005).

Conditions: iontophoresis in vitro across human skin

Cumulative delivery compared with lidocaine, slightly greater delivery:
CCCN(CC)C(CC)C(=O)Nc1c(C)cccc1C (stereo not drawn) [etidocaine]
CCCNC(C)C(=O)Nc1ccccc1C (stereo not drawn) [prilocalne]
CCN(CC)CCOC(=O)c1ccc(N)cc1 [procaine]
